Source: patent US20190343749A1, “PROTECTANTS” (Lincoln Manufacturing Inc., priority 2018, published 2019)

Test system: mixture of bacteria
Experiment: CTFA Preservative Challenge Test on a shampoo
Type: cell-based
Conditions: for Mixed Bacteria Day 7 Count / Mixed Bacteria Day 14 Count: shampoo containing the sample, initial count 4×10^6 cfu/mL; for kill reduction: shampoo, mixed bacteria
Protocol: The CTFA Preservative Challenge Test was performed on a shampoo containing the samples below against a mixture of bacteria having an initial count of 4×10^6 cfu/mL. The shampoos inoculated with bacteria were allowed to stand for 7 or 14 days. The samples were evaluated for surviving organisms on day 7 or day 14 for bacteria-innoculated shampoos.
E. Kull et al., “Mixtures of Quaternary Ammonium Compounds and Long-chain Fatty Acids as Antifungal Agents”, Applied Microbiology, 9:538-541 (1961). The synergism value (QA/Qa+QB/Qb) was determined. […] Qb is the concentration of pircotine olamine alone (in percent by weight) required to yield 100% retardation of the bacteria. When the value of (QA/Qa +QB/Qb) is less than one, the mixture is synergistic. Values for (QA/Qa+QB/Qb) of 1 and greater represent an additive effect and an antagonistic effect, respectively.

Row | SMILES | concentration alone required to yield 100% retardation of the bacteria (Qa, Qb) (percent by weight in shampoo, plate count <10 cfu/g after 14 days) [%] | Mixed Bacteria Day 7 Count (day 7) | Mixed Bacteria Day 14 Count (day 14) | kill reduction (day 7) | kill reduction (day 14)
1 | Cc1cc(CC(C)CC(C)(C)C)n(O)c(=O)c1.NCCO (centres unmarked) [0.1% Piroctone olamine, piroctone olamine] | > 0.1 | 1.2 × 10^5 cfu/mL | 1.3 × 10^5 cfu/mL | (<97% kill reduction) | (<97% kill reduction)
2 | COc1ccc(C(=O)[O-])cc1.[Na+] [1% sodium p-anisate, sodium p-anisate] | – | 2.3 × 10^4 cfu/mL | – | (<99% kill reduction) | –
3 | CCCCCCCCCCCCCCCC[n+]1ccccc1 [1% cetylpyridinium chloride, cetylpyridinium chloride] | – | – | 7 × 10^3 cfu/mL | – | –
